Results reported in US20240208898A1, “ENAMINE N-OXIDES: SYNTHESIS AND APPLICATION TO HYPOXIA-RESPONSIVE PRODRUGS AND IMAGING AGENTS” (DANA-FARBER CANCER INSTITUTE, INC., priority 2021, published 2024).

How the values were obtained:
[1] = Thermal decomposition of enamine N-oxide (Cope elimination); format: physicochemical; conditions: 60° C. in CDCl3 for 1 h
Description: A 1-dram vial was charged with enamine N-oxide S1 (90.0 mg, 179 μmol, 1 equiv) and dissolved in chloroform-d (1.79 mL). The reaction vial was flushed with nitrogen, sealed with a cap and Parafilm, and heated to 60° C. After 1 hour, the oil bath was removed and the reaction was cooled to room temperature. The reaction mixture was purified by flash column chromatography on silica gel (eluent: 5% CMA in chloroform). Fractions containing the desired compound were combined and the solvent was removed under reduced pressure at 0° C. with a rotary evaporator to provide the product S2 (14.9 mg, 34%) as an off-white solid. ^1H NMR (500 MHz, CDCl3, 25° C.): δ 7.94 (d, J=8.3, 1H), 7.86 (d, J=7.3, 1H), 7.79 (d, J=7.9, 1H), 7.55-7.35 (m, 4H), 7.31 (d, J=9.6, 1H), 6.16 (dd, J=36.1, 9.7, 1H), 4.08 (d, J=14.0, 2H), 3.65 (s, 3H). ^13C NMR (126 MHz, CDCl3, 25° C.): δ 165.7 (d, J=277.1), 134.2, 132.0, 130.7 (d, J=3.0), 130.4 (d, J=3.2), 129.1, 128.6, 128.1, 126.8, 126.1, 125.7, 123.6, 100.2 (d, J=8.1), 52.6, 36.5 (d, J=26.2). ^19F NMR (471 MHz, CDCl3, 25° C.): δ −89.5. FTIR (thin film) cm^−1: 2922 (m), 2855 (w), 1662 (m), 1569 (w), 1408 (m), 1140 (s), 779 (s). HRMS (ESI) (m/z): calc'd for C15H15FNO [M+H]^+: 244.1132, found: 244.1129. TLC (5% CMA/chloroform), Rf: 0.30 (UV, KMnO4).
A 1-dram vial was charged with enamine N-oxide S1 (90.0 mg, 179 μmol, 1 equiv) and dissolved in chloroform-d (1.79 mL). […]

[2] = Assay evaluating the importance of enamine N-oxide unsaturation; format: physicochemical; conditions: reductants B2(OH)4 or Fe^2+, 100 mM HEPES, pH 7.4, HPLC
Description: Enamine N-oxide 6 or alkyl N-oxide S4 (50 μL, 4 mM in water; 200 μM final concentration) were added to a HEPES buffered solution (750 μL, 100 mM HEPES, pH 7.4; 1 mL final volume) in an HPLC vial. N-oxide reduction was initiated by adding a solution of tetrahydroxydiboron (200 μL, 200 nmol, 1 equiv, 1 mM in ethanol) and the resulting solution was incubated at room temperature. After 1 hour, solutions were analyzed by HPLC (C18 column, 4.6×50 mm, 2.4 μm particle size, 1 mL/minute flow rate, eluent: gradient H2O+0.1% TFA (1 minute), gradient 0→100% MeCN/H2O+0.1% TFA (4 minutes), MeCN+0.1% TFA (1 minute)). p-Cresol was quantified by its absorbance at 280 nm.

[3] = Nucleophilic trapping experiment with benzyl mercaptan; format: physicochemical; conditions: benzyl mercaptan (10 equiv), room temperature
Description: A round-bottom flask was charged with (E)-N,N-diethyl-4-phenyl-3-(p-tolyloxy)but-1-en-1-amine oxide (S6, 26.0 mg, 79.8 μmol, 1 equiv) and dissolved with chloroform-d (773 μL) at room temperature. Benzylmercaptan (93.7 μL, 798 μmol, 10.0 equiv) was then added via syringe. After 5 minutes, analysis by TLC indicated no reduction by benzylmercaptan. Solid bis(pinacolato)diboron (20.3 mg, 79.8 μmol, 1.00 equiv) was then added in one portion at room temperature. After 15 minutes, the reaction was directly loaded onto a silica gel column. The reaction mixture was purified by flash column chromatography (eluent: 100% chloroform) to provide aldehyde S7 (20.2 mg, 94%) as an off-white solid. ^1H NMR (500 MHz, CDCl3, 25° C.): δ 9.51 (dd, J=2.5, 1.4 Hz, 1H), 7.33-7.18 (m, 8H), 7.14-7.08 (m, 2H), 3.68 (q, J=13.4, 10.4 Hz, 2H), 3.20 (tdd, J=8.1, 6.5, 5.6 Hz, 1H), 2.97 (dd, J=13.7, 6.4 Hz, 1H), 2.78 (dd, J=13.8, 8.2 Hz, 1H), 2.60-2.40 (m, 2H). ^13C NMR (126 MHz, CDCl3, 25° C.): δ 200.7, 138.6, 138.1, 129.6, 129.2, 128.8, 128.7, 127.4, 127.0, 47.8, 42.3, 40.5, 36.1. FTIR (thin film) cm^−1: 3026 (w), 2922 (w), 1722 (s), 1494 (m), 1453 (m), 700 (s). HRMS (ESI) (m/z): calc'd for C17H19OS [M+H]^+: 271.1151, found: 271.1149. TLC (100% chloroform), Rf: 0.45 (UV, KMnO4).

[4] = Degradation studies of isolated enamine N-oxides in solvent at 60° C.; format: physicochemical; conditions: 6 hours, NMR
Description: Degradation studies were performed using isolated enamine N-oxides (5:5′, 15:1). An LC-MS vial was charged with a 0.1 M solution of enamine N-oxides (23.9 mg, 100 μmol) in the reaction solvent of interest and heated to 60° C. for 6 hours. After heating, the reaction mixture was concentrated under reduced pressure and dissolved in CDCl3. The amounts of enamine N-oxides (5 and 5′) and p-fluorophenol (4) were determined by ^1H and ^19F-NMR integrations using benzotrifluoride as an internal standard. Regioisomer ratios in different solvents were determined by ^1H-NMR integrations of vicinal versus geminal olefinic protons.

[5] = Assay evaluating the stability of enamine N-oxides to metal cations; format: physicochemical; conditions: 200 μM, 2 mM cations, 1 h, room temperature, 100 mM HEPES pH 7.4; Fe^2+ with 10 mM sodium dithionite
Description: Enamine N-oxide 3a (50 μL, 4 mM in water; 200 μM final concentration) was added to a HEPES buffered solution (946 μL, 100 mM HEPES, pH 7.4; 1 mL final volume) in an HPLC vial. A solution of metal cation (4 μL, 500 mM in water, 2 mM final concentration) was then added and the solution was incubated at room temperature. After 1 hour, solutions were analyzed by HPLC (C18 column, 4.6×50 mm, 2.4 μm particle size, 1 mL/minute flow rate, eluent: gradient H2O+0.1% TFA (1 minute), gradient 0→100% MeCN/H2O+0.1% TFA (4 minutes), MeCN+0.1% TFA (1 minute)). p-Cresol was quantified by its absorbance of 280 nm.
The following cations were assayed using this procedure: sodium chloride, potassium chloride, calcium chloride, magnesium chloride, manganese (II) chloride, cobalt (II) sulfate, zinc (II) chloride, nickel (II) acetate, and iron (III) chloride.
For iron (II) sulfate, a solution of iron (II) sulfate (2 μL, 1 M in 1 N HCl; 2 mM final concentration) was added followed by a solution of sodium dithionite (10 μL, 1 M in 1 N NaOH; 10 mM final concentration).

[6] = test system: human liver microsomes; test: In vitro microsomal reduction assay; format: in vitro ADME; conditions: hypoxic vs normoxic, 2-nitroaniline released, absorbance at λ=412 nm
Description: All reactions were prepared and carried out in a semi-micro spectrophotometer quartz cell fitted with a septum screw cap (Starna Cells). For anaerobic conditions, all solutions were degassed for 30 minutes by sparging with nitrogen. Cells were maintained under anaerobic conditions using nitrogen lines connected to a nitrogen gas manifold or using a nitrogen-filled balloon. In experiments requiring normoxic conditions, the quartz cells were left open to ambient atmosphere. Unless otherwise stated, reactions were prepared as follows. A solution of human liver microsomes (10 μL, 20 mg/mL in phosphate buffer, pH 7.4, Corning; 200 μg/mL final concentration) followed by a solution of NADPH (16.7 μL, 60 mM in 10 mM NaOH solution; 1 mM final concentration) was added to a phosphate buffered solution ([…], 100 mM phosphate buffer, pH 7.4; 1 mL final volume) at room temperature. After 1 hour, reactions were initiated by the addition of a stock solution of the 2-nitroaniline enamine N-oxide probes 32a-f (50 μL, 4 mM in phosphate buffer, pH 7.4; 200 μM final concentration). […]
Heat-inactivated microsomes were prepared for control experiments by heating a solution of human liver microsomes (20 mg/mL in phosphate buffer, pH 7.4, Corning) to 45° C. for 30 minutes. […]

[7] = Enamine N-oxides with reducing agents; format: physicochemical; conditions: probe 200 μM
Description: A stock solution of 2-nitroaniline enamine N-oxide probe 32c (50 μL, 4 mM in 100 mM phosphate buffer, pH 7.4; 200 μM final concentration) was added to a phosphate buffered solution (850 μL, 100 mM phosphate, pH 7.4; 1 mL final volume) in a semi-micro quartz cell open to ambient atmosphere. A solution of glutathione (100 μL, 50 mM in phosphate buffer, pH 7.4; 5 mM final concentration) or cysteine (100 μL, 50 mM in phosphate buffer, pH 7.4; 5 mM final concentration) or tetrahydroxydiboron (100 μL, […] in methanol; 200 μM final concentration) were added to the solution. Reactions with glutathione or cysteine were incubated at 37° C. The reaction with tetrahydroxydiboron was carried out at room temperature. Wavelength scans (400-550 nm) were recorded at several time points (0, 1, and 2 hours).

Structure (SMILES): C[N+]([O-])(/C=C/C(F)(F)Cc1cccc2ccccc12)CCCCC(=O)NCc1ccc2ccccc2c1 (stereo not shown) [enamine N-oxide S1, (E)-N-(3,3-difluoro-4-(naphthalen-1-yl)but-1-en-1-yl)-N-methyl-5-((naphthalen-2-ylmethyl)amino)-5-oxopentan-1-amine oxide]
- thermal decomposition [1]: two new products were isolated in addition to the starting material

Structure (SMILES): CC[N+]([O-])(CC)CCCOc1ccc(C)cc1 [alkyl N-oxide S4, N,N-diethyl-3-(p-tolyloxy)propan-1-amine oxide]
- release of p-cresol upon reduction [2]: did not lead to the release of p-cresol

Structure (SMILES): CC[N+]([O-])(/C=C/C(Cc1ccccc1)Oc1ccc(C)cc1)CC (stereo not shown) [enamine N-oxide S6, (E)-N,N-diethyl-4-phenyl-3-(p-tolyloxy)but-1-en-1-amine oxide]
- reduction in the absence of diboron [3]: not reduced in the absence of diboron

Structure (SMILES): CC[N+]([O-])(/C=C/COc1ccc(F)cc1)CC [enamine N-oxide 5, (E)-N,N-diethyl-3-(4-fluorophenoxy)prop-1-en-1-amine oxide]
- Yield (%) 4 (p-fluorophenol formed) ([4]; CHCl3, 0.1 M): 29%
- Yield (%) 5 + 5′ (enamine N-oxide remaining) ([4]; CHCl3, 0.1 M): 45%
- Yield (%) 4 (p-fluorophenol formed) ([4]; TFE, 0.1 M): <1%
- Yield (%) 5 + 5′ (enamine N-oxide remaining) ([4]; TFE, 0.1 M): 96%

Structure (SMILES): CC[N+]([O-])(/C=C/COc1ccc(C)cc1)CC [enamine N-oxide 6]
- release of p-cresol upon reduction [2]: led to the release of p-cresol
- stability in the presence of different metal cations [5]: Only Fe^2+ was capable of reducing enamine N-oxides

Structure (SMILES): CC[N+]([O-])(/C=C/COC(=O)Nc1ccccc1[N+](=O)[O-])CC [probe 32c, (E)-N,N-diethyl-3-(((2-nitrophenyl)carbamoyl)oxy)prop-1-en-1-amine oxide]
- enhancement in the initial rate of reduction under hypoxic conditions [6]: 21 fold
- reactivity toward cysteine ([7]; 5 mM cysteine, phosphate buffer pH 7.4, 37° C., over 2 h): unreactive
- reactivity toward glutathione ([7]; 5 mM glutathione (GSH), phosphate buffer pH 7.4, 37° C., over 2 h): unreactive
- time until probe is fully reduced by diboron ([7]; B2(OH)4 1 equiv 200 μM, room temperature): ≤ 10 min
